# Read-outs that look alike come from different tables or passages of the source.
# Experiments:
# rBCG:pMH30-lux [1] = test system: rBCG:pMH30-lux; design: species or system BCG; BALB/C mice; conditions: mouse, in vivo
# [2] = test system: Mycobacterium bovis BCG containing pMV361-lux (BCG:361-lux); test: microbe, parasite or virus in culture; format: cell-based; conditions: for MBC: Mycobacterium tuberculosis variant bovis BCG, BCG
# [3] = test system: Mycobacterium bovis BCG containing pMV361-lux (BCG:361-lux); test: microbe, parasite or virus in culture; format: cell-based; conditions: for MIC: Mycobacterium tuberculosis variant bovis BCG, BCG
# rBCG:pMH30-lux [4] = test system: rBCG:pMH30-lux; design: species or system BCG; BALB/C mice; conditions: mouse, in vivo; remark: listed apart in the source
# [5] = test system: Mycobacterium bovis BCG containing pMV361-lux (BCG:361-lux); test: microbe, parasite or virus in culture; format: cell-based; conditions: Mycobacterium tuberculosis variant bovis BCG, 120 h, read-out: MIC BACTEC
SMILES,reduced luminescence in spleen vs untreated control (rBCG:pMH30-lux [1]),total reduction in luminescence in spleen (rBCG:pMH30-lux [1]),MBC ([2]; 24 h),MBC ([2]; 48 h),MBC ([2]; 72 h),MBC ([2]; 96 h),MBC ([2]; 120 h),MIC ([3]; 24 h),MIC ([3]; 48 h),MIC ([3]; 72 h),MIC ([3]; 96 h),MIC ([3]; 120 h),lux activity in spleens (rBCG:pMH30-lux [4]),MIC [5],lux activity in spleens vs untreated control mice (rBCG:pMH30-lux [4]),similarity in BACTEC and BCG:pMV361-lux assays (susceptibility) [3],MBC value in words [2],rBCG-lux luminescence in spleens (rBCG:pMH30-lux [4])
"NNC(=O)c1ccncc1 [Isoniazid, isoniazid]",50%,90%,> 0.5 µg/mL,0.13 µg/mL,0.13 µg/mL,0.13 µg/mL,0.13 µg/mL,> 0.5 µg/mL,> 0.5 µg/mL,> 0.5 µg/mL,0.06 µg/mL,0.06 µg/mL,reduced lux activity,0.06 µg/mL,–,–,–,–
"CC1COc2c(N3CCN(C)CC3)c(F)cc3c(=O)c(C(=O)O)cn1c23 (centres unmarked) [OFX, ofloxacin]",–,–,–,–,–,–,–,–,–,–,–,–,–,–,substantially reduced lux activity,–,–,–
"CC[C@@H](CO)NCCN[C@@H](CC)CO [Ethambutol, ethambutol]",30%,75%,> 8 µg/mL,8 µg/mL,4 to 8 µg/mL,4 µg/mL,4 µg/mL,> 8 µg/mL,> 8 µg/mL,> 8 µg/mL,4 µg/mL,4 µg/mL,reduced lux activity,2 µg/mL,–,comparable,–,–
"O=C(O)c1cn(C2CC2)c2cc(N3CCNCC3)c(F)cc2c1=O [Ciprofloxacin, ciprofloxacin]",–,–,> 2 µg/mL,> 2 µg/mL,–,0.5 µg/mL,0.5 µg/mL,> 2 µg/mL,> 2 µg/mL,0.5 µg/mL,0.5 µg/mL,0.5 µg/mL,–,0.25 µg/mL,–,comparable,–,–
"NCC[C@H](O)C(=O)N[C@@H]1C[C@H](N)[C@@H](O[C@H]2O[C@H](CN)[C@@H](O)[C@H](O)[C@H]2O)[C@H](O)[C@H]1O[C@H]1O[C@H](CO)[C@@H](O)[C@H](N)[C@H]1O [Amikacin, amikacin]",–,–,2 µg/mL,0.5 µg/mL,0.5 µg/mL,0.25 µg/mL,0.25 µg/mL,> 2 µg/mL,> 2 µg/mL,0.5 µg/mL,0.25 µg/mL,0.25 µg/mL,–,0.13 µg/mL,substantially reduced lux activity,comparable,–,–
"CC[C@H]1OC(=O)[C@H](C)[C@@H](O[C@H]2C[C@@](C)(OC)[C@@H](O)[C@H](C)O2)[C@H](C)[C@@H](O[C@@H]2O[C@H](C)C[C@H](N(C)C)[C@H]2O)[C@](C)(OC)C[C@@H](C)C(=O)[C@H](C)[C@@H](O)[C@]1(C)O [Clarithromycin, clarithromycin]",–,–,> 0.5 µg/mL,> 0.5 µg/mL,> 0.5 µg/mL,> 0.5 µg/mL,> 0.5 µg/mL,> 0.5 µg/mL,> 0.5 µg/mL,0.5 µg/mL,0.25 µg/mL,0.25 µg/mL,–,0.25 µg/mL,–,comparable,above the highest concentration tested,–
"[H]/N=C(/N)N[C@H]1[C@H](O)[C@@H](O)[C@H](O[C@@H]2O[C@@H](C)[C@](O)(C=O)[C@H]2O[C@@H]2O[C@@H](CO)[C@H](O)[C@@H](O)[C@@H]2NC)[C@@H](N/C(N)=N\[H])[C@@H]1O [Streptomycin, streptomycin]",–,–,> 2 µg/mL,0.5 µg/mL,0.5 µg/mL,0.25 µg/mL,0.25 µg/mL,> 2 µg/mL,1 µg/mL,0.5 µg/mL,0.25 µg/mL,0.25 µg/mL,–,0.25 µg/mL,–,comparable,–,–
"CO[C@H]1/C=C/O[C@@]2(C)Oc3c(C)c(O)c4c(O)c(c(/C=N/N5CCN(C)CC5)c(O)c4c3C2=O)NC(=O)/C(C)=C\C=C\[C@H](C)[C@H](O)[C@@H](C)[C@@H](O)[C@@H](C)[C@H](OC(C)=O)[C@@H]1C [Rifampin, rifampin]",–,–,> 0.25 µg/mL,> 0.25 µg/mL,> 0.25 µg/mL,0.13 µg/mL,0.13 µg/mL,> 0.25 µg/mL,> 0.25 µg/mL,> 0.25 µg/mL,0.06 µg/mL,0.06 µg/mL,–,0.03 µg/mL,–,comparable,–,reduced rBCG-lux luminescence

# From US5679515A, “Mycobacterial reporter strains and uses thereof” (PathoGenesis Corporation, priority 1994, dated 1997)
